Assay results published in BigSolDB 2.1.

CCCCN(CCCC)CC(O)c1cc(Cl)cc2c1-c1ccc(Cl)cc1/C2=C/c1ccc(Cl)cc1 (stereo not given)
solubility (mole fraction)
Conditions	278.15 K	283.15 K	288.15 K	293.15 K	298.15 K	303.15 K	308.15 K	313.15 K	318.15 K	323.15 K
in ethyl acetate	0.00178	0.00234	0.00317	0.00411	0.0054	0.00693	0.00903	0.0116	0.0152	0.0201
in methanol	1.34e-05	1.7e-05	2.28e-05	3.04e-05	3.82e-05	4.97e-05	6.3e-05	8.2e-05	0.000106	0.000136
in n-butyl acetate	0.00425	0.00533	0.00674	0.00866	0.0108	0.0138	0.0176	0.0223	0.0286	0.036
in n-pentyl acetate	0.00475	0.00656	0.00849	0.011	0.0137	0.0168	0.0212	0.0253	0.0327	0.0407
in n-propyl acetate	0.00281	0.00366	0.00486	0.00656	0.00841	0.0109	0.0139	0.018	0.0231	0.0305
